Source: US6716829B2, “Aldosterone antagonist and cyclooxygenase-2 inhibitor combination therapy to prevent or treat inflammation-related cardiovascular disorders” (Pharmacia Corporation, priority 2000, dated 2004)
“And” between values parts separate entries of the source, which are not always exact repeats. Equal entries are not always repeated.

How the values were obtained:
[1] = test system: angiotensin II infused rats; test: Assay A, angiotensin II infusion model: systolic blood pressure by tail-cuff; type: in vivo, Male Wistar rats; conditions: angiotensin II 25 ng/min sc, 1% NaCl; eplerenone 100 mpk; aldosterone in adrenalectomized rats; 4 weeks
Protocol: Human cardiovascular disorders are complex conditions, often initiated by vascular hypertension or a myocardial infarction (MI). In order to determine the probable effectiveness of a therapy for cardiovascular disorders, it is important to determine the potency of components in several assays. Accordingly, in Assay “A”, the efficacy of the aldosterone antagonist epeplerenone (epoxymexrenone) was determined in a hypertensive rat model with vascular inflammation, using angiotensin II infusion. In Assay “B” a study is described evaluating the efficacy of the aldosterone antagonist epeplerenone (epoxymexrenone) in a rat model using aldosterone infusion to produce hypertension with vascular inflammation. In Assay “C” a further study is described evaluating the efficacy of the aldosterone antagonist epeplerenone (epoxymexrenone) in a rat model using aldosterone infusion to produce hypertension with vascular inflammation.
Assay A: In Vivo Angiotensin II Infusion Model
Male Wistar rats (n=50, 10/group; BW=200 g)
SBP measured by tail-cuff every week

osteopontin = test: Assay B: osteopontin immunohistochemistry in the heart; type: in vivo, Male Sprague Dawley rats; conditions: aldosterone-infused rats, eplerenone 100 mpk, increased dietary potassium group
Protocol: Assay B: In Vivo Aldosterone Infusion Model Male Sprague Dawley rats (n=39; BW=250 g) 2. Aldosterone (0.75 mg/hr, sc via alzet minipump) 2. […] Determination of osteopontin and COX-2 was performed by quantitative RT-PCR (Taqman). Osteopontin was also identified in the heart by immunohistochemistry.

Collagen III = test: Assay C: Collagen III mRNA by TaqMan RT-PCR; type: in vivo, Male Sprague-Dawley rats; conditions: for Collagen-III (AU): collagen type III mRNA relative to cyclophilin, eplerenone dose 100 mg/kg/day
Protocol: The procedure of Assay B was expanded upon in a further study. […] Myocardial tissue from animals in each treatment group was examined after 7, 14, or 30 days of treatment.
Potassium chloride supplementation was added to the saline solution in order to prevent the potential hypokalemia associated with aldosterone excess.
At the time of the surgery, an Alzet 2002 osmotic minipump (Alza Corp., Palo Alto, Calif.) containing either vehicle (9% ethanol/87% propylene glycol/4% dH2O) or 1.0 mg/mL d-aldosterone (Sigma Chemical, St. Louis, Mo.) was inserted subcutaneously at the nape of the neck. Aldosterone was administered at a dose of 0.75 µg/hour. […] Animals were sacrificed from each group (n=8-13) after 7, 14, or 30 days of treatment.
The fluorogenic 5′-nuclease assay (TaqMan PCR) using Applied Biosystems' 7700 Sequence Detection System (Applied Biosystems, Foster City, Calif.) allowed for real time detection/quantitation of a specific gene by monitoring the increase in fluorescence of a gene-specific, dye-labeled oligonucleotide probe. Probes for target and reference genes were labeled at the 5′-end with a 6-carboxyfluorescein (6FAM) reporter dye and at the 3′-end with a 6-carboxy-N,N,N′,N′-tetramethylrhodamine (TAMRA) quencher dye. When the probe was annealed to the target gene, fluorescence of 6FAM was prevented by the close proximity of TAMRA. The exonuclease activity of Taq polymerase released the dyes from the oligonucleotide probe by displacing the probe from the target sequence resulting in fluorescence excitation in direct proportion to the amount of target message present. Data analysis was performed using the Sequence Detection System software from Applied Biosystems.
Primers and probes were designed using Oligo Primer Analysis Software, Version 5.0 (National Biosciences Inc. (NBI)-Wojciech Rychlik, Cascade, Colo.). Primers were synthesized by Life Technologies (Grand Island, N.Y.) and probes were synthesized by Applied Biosystems. Primer/probe sets were designed from known sequences of rat genes to be analyzed. All target gene values were normalized to a reference gene, constitutively expressed cyclophilin. Primer/probe sets sequences can be found in Table 8
RNA was extracted from frozen (−70° C.) left ventricle (LV) tissue (approximately 10-20 mg) using 1.5 mL RNA-STAT 60 according to manufacturer's instructions (Leedo Medical Laboratories, Inc., Houston, Tex.). Briefly, tissues were homogenized using a tissue homogenizer equipped with a 5 mm probe (Ultra-Turrax T8 Homogenizer, IKA Works, Inc. Wilmington, N.C.). Following homogenization, an equal volume of molecular grade chloroform (Sigma Chemical Co., St. Louis, Mo.) was incubated with periodic mixing for 10 min at room temperature. Samples were centrifuged at 12,000 g for 10 min and RNA was precipitated from the top layer by adding an equal volume of molecular grade isopropanol (Sigma Chemical Co.) followed by an overnight incubation at −80° C. RNA was pelleted by centrifugation at 12,000 g, washed with 75% ethanol, and solubilized in nuclease-free water (Promega, Madison, Wis.).
Double-stranded cDNA was synthesized by adding 400 ng RNA (4 uL) to a final volume of 20 uL containing 15% nuclease-free water (Promega, Madison, Wis.), 1×RT Buffer (Life Technologies, Grand Island, N.Y.), 10 mM DTT (Life Technologies), 0.5 mM each of dATP, dTTP, dGTP, dCTP (PE Biosystems, Foster City, Calif.), 2.5 μM Oligo d(T)15 (Oligo Therapeutics, Inc., Wilsonville, Oreg.), 40 units RNAsin (Promega), and 200 units SuperScript II Reverse Transcriptase (Life Technologies). The reactions were performed in thin-walled reaction tubes with caps (Applied Biosystems) to ensure accurate reaction temperatures.

[2] = mean ± SEM after 7 days of treatment
[3] = mean ± SEM after 14 days of treatment
[4] = mean ± SEM after 30 days of treatment
[5] = group mean, data used for Table 15 (14 days of treatment)
[6] = group mean, data used for Table 16 (30 days of treatment)

C[C@]12CCC(=O)C=C1CC[C@@H]1[C@@H]2[C@@H](O)C[C@]2(C=O)[C@@H](C(=O)CO)CC[C@@H]12 [Aldosterone]
Systolic Blood Pressure [1]: increased blood pressure
Osteopontin expression in the heart (immunostaining) (osteopontin): clearly identified in the media of coronary arteries
Collagen-III (AU) (Collagen III; [2]): 1.42 ± 0.12 AU
Collagen-III (AU) (Collagen III; [3]): 1.08 ± 0.14 AU
Collagen-III (AU) (Collagen III; [4]): 1.39 ± 0.20 AU
Collagen-III mRNA (AU) (Collagen III; [5]): 1.08 AU
Collagen-III mRNA (AU) (Collagen III; [6]): 1.39 AU
Collagen-III mRNA (AU) (Collagen III; individual rats, data used for Table 15 (14 days of treatment), incl. rat marked * excluded from statistics, listed as Aldosterone + salt): 0.76 AU and 1.80 AU and 0.44 AU and 1.39 AU and 1.17 AU and 1.24 AU and 1.06 AU and 1.31 AU and 0.59 AU and 1.22 AU
Collagen-III mRNA (AU) (Collagen III; individual rats, data used for Table 16 (30 days of treatment), incl. rat marked * excluded from statistics, listed as Aldosterone + salt): 0.75 AU and 0.58 AU and 1.99 AU and 0.72 AU and 2.04 AU and 1.43 AU and 1.82 AU and 1.89 AU and 1.28 AU

COC(=O)[C@@H]1CC2=CC(=O)CC[C@]2(C)[C@@]23O[C@@H]2C[C@@]2(C)[C@@H](CC[C@@]24CCC(=O)O4)[C@H]13 [Eplerenone]
Systolic Blood Pressure [1]: Neither eplerenone nor adrenalectomy reduced blood pressure
Osteopontin expression in the heart (immunostaining) (osteopontin): prevented the expression of osteopontin
Osteopontin expression in the heart (immunostaining) (osteopontin; listed as eplerenone): prevention
Collagen-III (AU) (Collagen III; [2]): 1.09± 0.21 AU
Collagen-III (AU) (Collagen III; [3]): 1.61 ± 0.26 AU
Collagen-III (AU) (Collagen III; [4]): 1.53 ± 0.23 AU
Collagen-III mRNA (AU) (Collagen III; [5]): 1.61 AU
Collagen-III mRNA (AU) (Collagen III; [6]): 1.53 AU
Collagen-III mRNA (AU) (Collagen III; individual rats, data used for Table 15 (14 days of treatment), incl. rat marked * excluded from statistics, listed as Eplerenone + aldosterone + salt): 0.60 AU (2×) and 1.19 AU and 1.16 AU and 1.24 AU and 1.70 AU and 1.81 AU and 1.61 AU and 2.21 AU and 1.80 AU and 3.77 AU
Collagen-III mRNA (AU) (Collagen III; individual rats, data used for Table 16 (30 days of treatment), incl. rat marked * excluded from statistics, listed as Eplerenone + aldosterone + salt): 0.95 AU and 0.72 AU and 1.37 AU and 0.89 AU and 1.26 AU and 1.87 AU and 1.66 AU and 2.89 AU and 2.16 AU and 0.73 AU
